Measurements published in US11214803B2, “Modulators of YAP1 expression” (Ionis Pharmaceuticals, Inc., priority 2019, dated 2022).
Strand notation (5' to 3'): a small letter for the sugar, then the base; units joined by * are phosphorothioate-linked, units joined directly phosphodiester-linked; [ ] holds rarer units or linkages, { } end groups; capitals alone tell only the bases. k = constrained ethyl (cEt); [5mC] = 5-methylcytosine; d = 2'-deoxy (DNA)

Test system: Yap1 mRNA
Test: Antisense inhibition of human Yap1 in A-431 cells by cEt gapmers, single dose (Example 2, RTS4814)
Format: cell-based
Conditions: A-431 cells, 5,000 cells per well, free uptake, 2,000 nM modified oligonucleotide, approx. 48 hours, RTS4814, normalized to RIBOGREEN; Table 4; asterisk (*) = targets amplicon region of primer probe set
Method in brief: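 Single-dose knockdown screen of 3-10-3 cEt phosphorothioate gapmers at 2,000 nM added by free uptake to A-431 cells. After roughly 48 h, RNA was isolated and Yap1 transcript measured by RT-qPCR, with results given as % UTC.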

Substance | YAP1 (% UTC)
716418 (k[5mC]*k[5mC]*kT*dG*dA*dG*dG*dG*d[5mC]*dT*d[5mC]*dT*dA*kT*kA*kA; antisense) [Compound 716418] | 75
716514 (antisense kG*k[5mC]*kT*dG*dA*dT*dA*dT*dA*dT*dA*dA*dG*kA*kT*kA) [Compound 716514] | 68

Same assay, conditions: Table 5; A-431 cells, 5,000 cells per well, free uptake, 2,000 nM modified oligonucleotide, approx. 48 hours; RTS4814; normalized to RIBOGREEN; Yap1 mRNA relative to untreated control cells

Substance | YAP1 (% UTC)
716527 (antisense kA*kG*kT*dA*d[5mC]*dA*dG*dA*dG*dG*dG*d[5mC]*dA*kT*k[5mC]*kG) [Compound 716527] | 64
716416 (kA*kA*kG*dG*dA*dT*dG*dT*d[5mC]*dA*dG*dA*dA*k[5mC]*kT*k[5mC]; antisense) [Compound 716416] | 45

Same assay, conditions: Table 6; A-431 cells, 5,000 cells per well, free uptake, 2,000 nM modified oligonucleotide, approx. 48 hours; RTS4814; normalized to RIBOGREEN; Yap1 mRNA relative to untreated control cells

Substance | YAP1 (% UTC)
716360 (k[5mC]*kT*kG*d[5mC]*d[5mC]*d[5mC]*dG*dG*dG*dA*dT*d[5mC]*d[5mC]*kA*kT*kG; antisense) [Compound 716360] | 118
716408 (k[5mC]*kA*k[5mC]*dT*dG*dT*dA*dG*d[5mC]*dT*dG*d[5mC]*dT*k[5mC]*kA*kT; antisense) [Compound 716408] | 54
716519 (antisense kG*kT*kT*dT*dA*dT*dA*dA*dA*dG*dT*dT*d[5mC]*kT*k[5mC]*kT) [Compound 716519] | 57
716492 (kA*kA*kA*d[5mC]*dA*d[5mC]*dA*dG*dA*dG*dG*dT*dG*k[5mC]*kT*kA; antisense) [Compound 716492] | 72

Same assay, conditions: Table 18; A-431 cells, 5,000 cells per well, free uptake, 2,000 nM modified oligonucleotide, approx. 48 hours; RTS4814; normalized to RIBOGREEN; Yap1 mRNA as percent of untreated control

Substance | YAP1 (% UTC)
1074468 (k[5mC]*k[5mC]*kA*d[5mC]*d[5mC]*dG*dA*d[5mC]*d[5mC]*d[5mC]*dT*dG*d[5mC]*k[5mC]*kA*kA; antisense) [Compound 1074468] | 34
1074180 (antisense k[5mC]*k[5mC]*kG*dG*dG*dA*dT*d[5mC]*d[5mC]*dA*dT*dG*dG*k[5mC]*kT*kT) [Compound 1074180] | 86
1074372 (antisense k[5mC]*kT*kT*dT*dG*dG*dT*dT*dG*dA*dT*dA*dG*kT*kA*kT) [Compound 1074372] | 10
1076324 (kG*k[5mC]*kT*d[5mC]*dA*dA*dA*dA*dG*dG*dT*d[5mC]*dT*k[5mC]*kT*k[5mC]; antisense) [Compound 1076324] | 13

Same assay, conditions: Table 19; A-431 cells, 5,000 cells per well, free uptake, 2,000 nM modified oligonucleotide, approx. 48 hours; RTS4814; normalized to RIBOGREEN; Yap1 mRNA as percent of untreated control

Substance | YAP1 (% UTC)
1075909 (kA*kA*kA*dT*dA*dA*dG*dG*dA*dG*dT*dA*dG*kG*kT*kG; antisense) [Compound 1075909] | 93
1075333 (kA*kG*kT*dT*dA*dA*d[5mC]*dA*dA*dA*dG*d[5mC]*dG*kG*kG*kT; antisense) [Compound 1075333] | 14
1075557 (kT*kA*kT*dT*dA*dA*dG*dG*dT*dG*dG*d[5mC]*dT*kT*kA*k[5mC]; antisense) [Compound 1075557] | 57
1076037 (k[5mC]*kT*kT*dA*dA*dA*dT*dT*d[5mC]*dT*d[5mC]*dT*dT*kA*k[5mC]*kG; antisense) [Compound 1076037] | 21
1076261 (k[5mC]*k[5mC]*k[5mC]*d[5mC]*dA*dA*d[5mC]*dA*dA*dG*dT*dT*d[5mC]*k[5mC]*kT*kG; antisense) [Compound 1076261] | 39

Same assay, conditions: Table 20; Yap1 mRNA, percent of untreated control; 3-10-3 cEt gapmers targeting SEQ ID NO.: 1 and 2

Substance | YAP1 (% UTC)
1075494 (antisense kT*k[5mC]*kT*d[5mC]*dA*dA*d[5mC]*dA*dA*dT*dT*dT*dG*k[5mC]*kT*kA) [Compound 1075494] | 47
1074566 (antisense k[5mC]*kA*k[5mC]*dT*dG*dA*dA*dT*dT*d[5mC]*d[5mC]*dA*dA*kT*k[5mC]*kG) [Compound 1074566] | 3

Same assay, conditions: Table 21; Yap1 mRNA, percent of untreated control; 3-10-3 cEt gapmers targeting SEQ ID NO.: 1 and 2

Substance | YAP1 (% UTC)
1075239 (antisense kT*k[5mC]*kT*dT*dA*dA*dA*d[5mC]*dA*dG*dG*dT*dG*k[5mC]*k[5mC]*kA) [Compound 1075239] | 27

Same assay, conditions: Table 22; Yap1 mRNA as percent of untreated control; 3-10-3 cEt gapmers; single dose

Substance | YAP1 (% UTC)
1074696 (antisense kG*kT*k[5mC]*d[5mC]*d[5mC]*d[5mC]*d[5mC]*dT*dA*dA*dA*dT*d[5mC]*kT*kT*k[5mC]) [Compound 1074696] | 38
1075336 (kG*k[5mC]*kT*dT*dA*dA*dT*dA*dA*dT*d[5mC]*dT*dA*k[5mC]*k[5mC]*kA; antisense) [Compound 1075336] | 32
1076104 (kA*k[5mC]*kG*dA*dA*dA*dT*dA*dG*dT*dA*dA*d[5mC]*kT*kG*kT; antisense) [Compound 1076104] | 24
1075144 (antisense kA*k[5mC]*k[5mC]*d[5mC]*dT*dA*dT*dA*dT*d[5mC]*d[5mC]*dT*dA*kT*kA*kT) [Compound 1075144] | 82
1075560 (kG*k[5mC]*kT*dA*dA*dA*dT*dA*dA*dA*dG*dG*dT*kT*kA*k[5mC]; antisense) [Compound 1075560] | 86

Same assay, conditions: Table 23; Yap1 mRNA as percent of untreated control; 3-10-3 cEt gapmers; single dose

Substance | YAP1 (% UTC)
1074569 (antisense kT*kG*kA*dA*d[5mC]*d[5mC]*dT*dA*d[5mC]*dT*d[5mC]*dA*d[5mC]*kT*kG*kA) [Compound 1074569] | 8
1075145 (antisense kT*k[5mC]*k[5mC]*d[5mC]*dA*dA*dA*dA*dG*dG*dA*dG*dT*kA*kG*k[5mC]) [Compound 1075145] | 58
1075721 (kT*kT*kA*dA*dA*dT*dA*d[5mC]*d[5mC]*dT*dT*d[5mC]*dT*kA*kG*k[5mC]; antisense) [Compound 1075721] | 67
1075401 (antisense k[5mC]*kG*kA*dT*dT*dA*dA*dA*dA*d[5mC]*dA*d[5mC]*dT*kG*kG*kT) [Compound 1075401] | 3
1074153 (antisense k[5mC]*kA*k[5mC]*dG*dG*dG*d[5mC]*d[5mC]*dG*dA*dG*dG*dT*kG*kG*kA) [Compound 1074153] | 78

Same assay, conditions: Table 24; Yap1 mRNA as percent of untreated control; 3-10-3 cEt gapmers targeting SEQ ID NO.: 1, and 2

Substance | YAP1 (% UTC)
1076234 (k[5mC]*k[5mC]*kT*dT*dA*dA*dT*dA*dT*dA*dT*d[5mC]*d[5mC]*kA*k[5mC]*kA; antisense) [Compound 1076234] | 24
1074570 (antisense kA*kT*kG*dA*dA*d[5mC]*d[5mC]*dT*dA*d[5mC]*dT*d[5mC]*dA*k[5mC]*kT*kG) [Compound 1074570] | 12
1074794 (k[5mC]*kA*kA*dA*dT*d[5mC]*dA*dA*dT*dG*dT*dG*d[5mC]*kT*k[5mC]*k[5mC]; antisense) [Compound 1074794] | 5
1075466 (antisense kT*k[5mC]*k[5mC]*dA*dA*dA*dA*dA*d[5mC]*d[5mC]*dA*dT*d[5mC]*kA*kG*kT) [Compound 1075466] | 28

Same assay, conditions: Table 25; Yap1 mRNA as percent of untreated control; 3-10-3 cEt gapmers targeting SEQ ID NO.: 1, and 2

Substance | YAP1 (% UTC)
1074763 (kT*kG*k[5mC]*dT*dA*d[5mC]*d[5mC]*d[5mC]*dA*dA*dT*dA*d[5mC]*kA*kA*k[5mC]; antisense) [Compound 1074763] | 25

Same assay, conditions: Table 32; Yap1 mRNA, percent of untreated control; 3-10-3 cEt gapmers targeting SEQ ID NO.: 1, and 2

Substance | YAP1 (% UTC)
1076210 (kA*kT*kT*dT*dA*dT*dA*dT*dG*d[5mC]*dT*d[5mC]*d[5mC]*k[5mC]*kT*k[5mC]; antisense) [compound 1076210] | 20
1074898 (antisense kA*kA*k[5mC]*dT*dT*dT*dT*dG*dG*dG*d[5mC]*dA*dA*kA*kG*kT) [compound 1074898] | 101

Same assay, conditions: Table 33; Yap1 mRNA, percent of untreated control; 3-10-3 cEt gapmers targeting SEQ ID NO.: 1, and 2

Substance | YAP1 (% UTC)
1075411 (antisense k[5mC]*kA*kA*dA*dA*dA*dG*dG*dG*dT*dA*dA*dG*kG*k[5mC]*kA) [compound 1075411] | 39
1076019 (k[5mC]*kA*k[5mC]*dT*dA*dA*dT*dA*dG*dG*dA*dT*dG*kG*kA*kT; antisense) [compound 1076019] | 12

Same assay, conditions: Yap1 mRNA as percent of untreated control; A-431 cells; 3-10-3 cEt gapmers targeting SEQ ID NO.: 1, and 2; Table 30

Substance | YAP1 (% UTC)
1074320 (antisense kG*kG*k[5mC]*dT*dA*dA*d[5mC]*dT*d[5mC]*d[5mC]*dT*dG*dA*k[5mC]*kA*kT) [compound 1074320] | 80
1076272 (kT*kT*kA*dG*dA*dA*d[5mC]*dA*dA*d[5mC]*dT*dA*d[5mC]*kT*kA*k[5mC]; antisense) [compound 1076272] | 53

Same assay, conditions: Yap1 mRNA as percent of untreated control; A-431 cells; 3-10-3 cEt gapmers targeting SEQ ID NO.: 1, and 2; Table 31

Substance | YAP1 (% UTC)
1076241 (k[5mC]*kA*kA*dT*dA*dA*dG*dG*dA*dA*d[5mC]*dA*dG*kT*kT*kT; antisense) [compound 1076241] | 42
1074225 (antisense k[5mC]*k[5mC]*kA*dG*dA*dG*dA*d[5mC]*dT*dA*d[5mC]*dT*d[5mC]*k[5mC]*kA*kG) [compound 1074225] | 11
1076433 (kA*kT*kT*dA*dA*d[5mC]*dT*dT*dT*d[5mC]*dG*d[5mC]*dT*kA*kA*kA; antisense) [compound 1076433] | 69
1074769 (kT*k[5mC]*kT*dT*dA*dT*d[5mC]*d[5mC]*d[5mC]*dA*dA*dT*dG*k[5mC]*kT*kA; antisense) [compound 1074769] | 12
